How the values were obtained:
Assay type in all cases: in vivo
[1] = system: Italian ryegrass (Lolium multiflorum); experiment: Test B pre-/postemergence plant response
How it was run: (§1)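 Seeds in loam–sand blend given preemergence soil spray; separately, plants at one- to two-leaf stage (2–10 cm) sprayed postemergence, compounds in non-phytotoxic solvent with surfactant. Injury rated visually versus untreated controls after ~10 days in greenhouse, 0 (no effect) to 100 (complete control).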

[2] = system: barnyardgrass (Echinochloa crus-galli); experiment: Test B pre-/postemergence plant response
How it was run: as §1

corn (Zea mays) = experiment: Test B pre-/postemergence plant response
How it was run: as §1

[3] = system: giant foxtail (Setaria faberii); experiment: Test B pre-/postemergence plant response
How it was run: as §1

kochia (Kochia scoparia) [4] = experiment: Test B pre-/postemergence plant response
How it was run: as §1

[5] = system: pigweed (Amaranthus retroflexus); experiment: Test B pre-/postemergence plant response
How it was run: as §1

[6] = system: ragweed (common ragweed, Ambrosia elatior); experiment: Test B pre-/postemergence plant response
How it was run: as §1

[7] = system: wheat (Triticum aestivum); experiment: Test B pre-/postemergence plant response
How it was run: as §1

[8] = system: blackgrass (Alopecurus myosuroides); experiment: Test B postemergence plant response
How it was run: (§2)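 Weeds grown in loam soil/sand pots were sprayed postemergence at 2 to 10 cm height, one- to two-leaf stage. After approximately 10 days in greenhouse, injury was rated visually against untreated controls on a 0 (no effect) to 100 (complete control) scale; dash means no test result.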

[9] = system: galium (catchweed bedstraw, Galium aparine); experiment: Test B postemergence plant response
How it was run: as §2

[10] = system: barnyardgrass (Echinochloa crus-galli); experiment: Test C flooded paddy test plant response; settings: Flood, 250 g ai/ha; scale of 0 to 100 where 0 is no effect and 100 is complete control; 13 to 15 days
How it was run: (§3)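 Readout is a visual 0–100 score (100 = complete control) versus controls at 13–15 days. Plants at 2-leaf stage, flooded to 3 cm, treated through paddy water.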

[11] = system: ducksalad (Heteranthera limosa); experiment: Test C flooded paddy test plant response; settings: Flood, 250 g ai/ha; scale of 0 to 100 where 0 is no effect and 100 is complete control; 13 to 15 days
How it was run: as §3

rice (Oryza sativa) = experiment: Test C flooded paddy test plant response; settings: Flood, 250 g ai/ha; scale of 0 to 100 where 0 is no effect and 100 is complete control; 13 to 15 days
How it was run: as §3

[12] = system: small-flower umbrella sedge (Cyperus difformis); experiment: Test C flooded paddy test plant response; settings: Flood, 250 g ai/ha; scale of 0 to 100 where 0 is no effect and 100 is complete control; 13 to 15 days
How it was run: as §3

[13] = system: chickweed (common chickweed, Stellaria media); experiment: Test D postemergence plant response; settings: for Plant response rating (scale 0 to 100), Chickweed: 16 g ai/ha; for Chickweed plant response rating: 31 g ai/ha, scale 0 to 100 (0 no effect, 100 complete control); for Plant response rating, Chickweed: scale 0 to 100, 0 no effect, 100 complete control
How it was run: (§4)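 Plants grown in pots of peat moss–vermiculite medium with wetting agent and starter nutrients received postemergence applications of the formulated test chemicals at 2 to 18 cm height (1- to 4-leaf stage). After 13 to 15 days in a greenhouse, injury was scored visually against untreated controls, 0 (no effect) to 100 (complete control).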

kochia (Kochia scoparia) [14] = experiment: Test D postemergence plant response; settings: for Plant response rating (scale 0 to 100), Kochia: 16 g ai/ha; for Kochia plant response rating: 31 g ai/ha, scale 0 to 100 (0 no effect, 100 complete control); for Plant response rating, Kochia: scale 0 to 100, 0 no effect, 100 complete control
How it was run: as §4

wild oat (Avena fatua) = experiment: Test D postemergence plant response; settings: for Plant response rating (scale 0 to 100), Oat, Wild: 16 g ai/ha; for Plant response rating, Oat, Wild: 125 g ai/ha
How it was run: as §4

[15] = Postemergence, 1000 g ai/ha, 0 to 100 scale (0 no effect, 100 complete control)
[16] = Preemergence, 1000 g ai/ha, 0 to 100 scale (0 no effect, 100 complete control)
[17] = 31 g ai/ha, scale 0 to 100 (0 no effect, 100 complete control)
[18] = 62 g ai/ha, scale 0 to 100, 0 no effect, 100 complete control
[19] = scale 0 to 100, 0 no effect, 100 complete control
[20] = 31 g ai/ha, Preemergence, 0 to 100 scale where 0 is no effect and 100 is complete control
[21] = 125 g ai/ha, postemergence, 0 to 100 scale, 0 no effect, 100 complete control
[22] = Postemergence, 31 g ai/ha, 0 to 100 scale (0 no effect, 100 complete control)
[23] = Preemergence, 125 g ai/ha, 0 to 100 scale (0 no effect, 100 complete control)

Clc1cnc(Oc2ccccc2-c2cc(Cl)sn2)nc1 [Compound 192]
Plant response rating, Ryegrass, Italian [1, 15]: 50
Plant response rating, Ryegrass, Italian [1, 16]: 50
Plant response rating, Barnyardgrass [2, 15]: 100
Plant response rating, Barnyardgrass [2, 16]: 100
Plant response rating, Corn (corn (Zea mays); [15]): 30
Plant response rating, Foxtail, Giant [3, 15]: 90
Plant response rating, Foxtail, Giant [3, 16]: 100
Plant response rating, Kochia (kochia (Kochia scoparia) [4]; [15]): 100
Plant response rating, Kochia (kochia (Kochia scoparia) [4]; [16]): 100
Plant response rating, Pigweed [5, 15]: 100
Plant response rating, Pigweed [5, 16]: 100
Plant response rating, Ragweed [6, 15]: 60
Plant response rating, Ragweed [6, 16]: 20
Plant response rating, Wheat [7, 15]: 30
Plant response rating, Blackgrass [8, 15]: 90
Plant response rating, Galium [9, 15]: 100
Barnyardgrass plant response rating [10]: 0
Ducksalad plant response rating [11]: 60
Rice plant response rating (rice (Oryza sativa)): 0
Sedge, Umbrella plant response rating [12]: 40
Plant response rating (scale 0 to 100), Chickweed [13]: 0
Chickweed plant response rating [13]: 50
Plant response rating, Chickweed ([13]; 62 g ai/ha): 50
Plant response rating, Chickweed ([13]; 125 g ai/ha): 55
Plant response rating (scale 0 to 100), Kochia (kochia (Kochia scoparia) [14]): 50
Kochia plant response rating (kochia (Kochia scoparia) [14]): 80
Plant response rating, Kochia (kochia (Kochia scoparia) [14]; 62 g ai/ha): 90
Plant response rating, Kochia (kochia (Kochia scoparia) [14]; 125 g ai/ha): 95
Plant response rating (scale 0 to 100), Oat, Wild (wild oat (Avena fatua)): 0
Oat, Wild plant response rating (wild oat (Avena fatua); [17]): 0
Oat, Wild plant response rating (wild oat (Avena fatua); [18]): 0
Plant response rating, Oat, Wild (wild oat (Avena fatua); [19]): 5

FC(Cl)(Cl)c1cc(-c2ccccc2Oc2ncc(Cl)cn2)no1 [Compound 198]
Plant response rating, Ryegrass, Italian [1, 20]: 0
Plant response rating, Ryegrass, Italian [1, 21]: 50
Plant response rating, Ryegrass, Italian [1, 22]: 10
Ryegrass, Italian plant response rating [1, 23]: 20
Plant response rating, Barnyardgrass [2, 20]: 10
Plant response rating, Barnyardgrass [2, 21]: 50
Plant response rating, Barnyardgrass [2, 22]: 10
Barnyardgrass plant response rating [2, 23]: 40
Plant response rating, Corn (corn (Zea mays); [21]): 20
Plant response rating, Corn (corn (Zea mays); [22]): 10
Plant response rating, Foxtail, Giant [3, 20]: 70
Plant response rating, Foxtail, Giant [3, 21]: 90
Plant response rating, Foxtail, Giant [3, 22]: 30
Foxtail, Giant plant response rating [3, 23]: 90
Plant response rating, Kochia (kochia (Kochia scoparia) [4]; [20]): 0
Plant response rating, Kochia (kochia (Kochia scoparia) [4]; [21]): 80
Plant response rating, Kochia (kochia (Kochia scoparia) [4]; [22]): 80
Kochia plant response rating (kochia (Kochia scoparia) [4]; [23]): 30
Plant response rating, Pigweed [5, 20]: 30
Plant response rating, Pigweed [5, 21]: 100
Plant response rating, Pigweed [5, 22]: 100
Pigweed plant response rating [5, 23]: 100
Plant response rating, Ragweed [6, 20]: 0
Plant response rating, Ragweed [6, 21]: 20
Plant response rating, Ragweed [6, 22]: 10
Ragweed plant response rating [6, 23]: 10
Plant response rating, Wheat [7, 21]: 10
Plant response rating, Wheat [7, 22]: 0
Plant response rating, Blackgrass [8, 21]: 40
Plant response rating, Blackgrass [8, 22]: 10
Plant response rating, Galium [9, 21]: 100
Plant response rating, Galium [9, 22]: 100
Barnyardgrass plant response rating [10]: 40
Ducksalad plant response rating [11]: 85
Rice plant response rating (rice (Oryza sativa)): 25
Sedge, Umbrella plant response rating [12]: 100
Plant response rating (scale 0 to 100), Chickweed [13]: 5
Chickweed plant response rating [13]: 60
Plant response rating, Chickweed ([13]; 62 g ai/ha): 60
Plant response rating, Chickweed ([13]; 125 g ai/ha): 95
Plant response rating (scale 0 to 100), Kochia (kochia (Kochia scoparia) [14]): 60
Kochia plant response rating (kochia (Kochia scoparia) [14]): 95
Plant response rating, Kochia (kochia (Kochia scoparia) [14]; 62 g ai/ha): 100
Plant response rating, Kochia (kochia (Kochia scoparia) [14]; 125 g ai/ha): 100
Plant response rating (scale 0 to 100), Oat, Wild (wild oat (Avena fatua)): 5
Oat, Wild plant response rating (wild oat (Avena fatua); [17]): 5
Oat, Wild plant response rating (wild oat (Avena fatua); [18]): 10
Plant response rating, Oat, Wild (wild oat (Avena fatua); [19]): 10
